Test [1] concerns the target T1, Polyunsaturated fatty acid 5-lipoxygenase (Homo sapiens, UniProt P09917).
T1 sequence (P09917 whole entry): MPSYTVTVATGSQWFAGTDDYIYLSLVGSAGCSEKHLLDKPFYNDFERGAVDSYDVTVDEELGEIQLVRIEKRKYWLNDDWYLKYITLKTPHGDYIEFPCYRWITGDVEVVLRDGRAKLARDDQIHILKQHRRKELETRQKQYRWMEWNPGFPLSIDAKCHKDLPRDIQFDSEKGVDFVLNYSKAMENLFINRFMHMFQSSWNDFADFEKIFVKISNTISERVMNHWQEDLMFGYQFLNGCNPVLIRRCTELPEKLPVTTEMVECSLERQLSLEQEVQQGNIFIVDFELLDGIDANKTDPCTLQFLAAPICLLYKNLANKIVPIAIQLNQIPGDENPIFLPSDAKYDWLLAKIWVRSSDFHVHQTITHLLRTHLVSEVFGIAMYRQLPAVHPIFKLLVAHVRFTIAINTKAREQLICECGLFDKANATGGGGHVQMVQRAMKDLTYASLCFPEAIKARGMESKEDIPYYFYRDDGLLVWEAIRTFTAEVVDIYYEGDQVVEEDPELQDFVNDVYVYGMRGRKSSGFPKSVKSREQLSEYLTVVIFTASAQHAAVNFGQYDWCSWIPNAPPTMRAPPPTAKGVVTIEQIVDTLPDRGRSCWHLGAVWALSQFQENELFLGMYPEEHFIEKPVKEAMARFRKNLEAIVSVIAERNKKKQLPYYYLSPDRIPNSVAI
Kind of test: Inhibitory concentration against arachidonate 5-lipoxygenase.

The target in test [2] is Cyclooxygenase (Homo sapiens, UniProt P35354+P23219).
Description: Inhibitory concentration against prostaglandin G/H synthase
Test [3] concerns the target T2, Peroxisome proliferator-activated receptor alpha (Homo sapiens, UniProt Q07869).
T2 sequence (Q07869 whole entry): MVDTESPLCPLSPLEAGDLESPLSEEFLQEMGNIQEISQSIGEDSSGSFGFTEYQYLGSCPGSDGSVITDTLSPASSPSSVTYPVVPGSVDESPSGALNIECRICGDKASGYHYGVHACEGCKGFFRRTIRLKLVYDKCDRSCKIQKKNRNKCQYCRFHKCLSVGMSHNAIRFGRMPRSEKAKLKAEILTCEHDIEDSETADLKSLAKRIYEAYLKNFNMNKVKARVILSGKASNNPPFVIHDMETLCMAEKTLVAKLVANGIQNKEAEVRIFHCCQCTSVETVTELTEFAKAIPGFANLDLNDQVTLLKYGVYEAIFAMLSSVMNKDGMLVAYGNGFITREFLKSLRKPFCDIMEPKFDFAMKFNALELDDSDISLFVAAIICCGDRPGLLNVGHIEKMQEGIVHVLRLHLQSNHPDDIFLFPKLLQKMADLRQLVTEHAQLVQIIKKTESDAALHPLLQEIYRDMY
Description: Binding affinity towards peroxisome proliferator activated receptor alpha

Test [4] addresses T3, Peroxisome proliferator-activated receptor delta (Homo sapiens, UniProt Q03181).
T3 sequence (Q03181 whole entry): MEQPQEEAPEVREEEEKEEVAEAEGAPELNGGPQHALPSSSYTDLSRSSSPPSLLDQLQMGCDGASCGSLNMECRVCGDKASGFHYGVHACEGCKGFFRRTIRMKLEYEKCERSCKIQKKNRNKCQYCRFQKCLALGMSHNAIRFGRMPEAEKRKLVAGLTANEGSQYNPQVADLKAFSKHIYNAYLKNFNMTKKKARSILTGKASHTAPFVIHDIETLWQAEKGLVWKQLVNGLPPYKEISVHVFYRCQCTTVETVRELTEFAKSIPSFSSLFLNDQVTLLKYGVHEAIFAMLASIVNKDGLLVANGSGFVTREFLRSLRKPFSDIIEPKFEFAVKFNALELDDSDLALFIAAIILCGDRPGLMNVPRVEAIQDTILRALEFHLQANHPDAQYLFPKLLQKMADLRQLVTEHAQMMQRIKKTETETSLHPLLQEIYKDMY
Description: Binding affinity towards peroxisome proliferator activated receptor delta

Test [5] deals with T4, Peroxisome proliferator-activated receptor gamma (Homo sapiens, UniProt P37231).
T4 sequence (P37231 whole entry): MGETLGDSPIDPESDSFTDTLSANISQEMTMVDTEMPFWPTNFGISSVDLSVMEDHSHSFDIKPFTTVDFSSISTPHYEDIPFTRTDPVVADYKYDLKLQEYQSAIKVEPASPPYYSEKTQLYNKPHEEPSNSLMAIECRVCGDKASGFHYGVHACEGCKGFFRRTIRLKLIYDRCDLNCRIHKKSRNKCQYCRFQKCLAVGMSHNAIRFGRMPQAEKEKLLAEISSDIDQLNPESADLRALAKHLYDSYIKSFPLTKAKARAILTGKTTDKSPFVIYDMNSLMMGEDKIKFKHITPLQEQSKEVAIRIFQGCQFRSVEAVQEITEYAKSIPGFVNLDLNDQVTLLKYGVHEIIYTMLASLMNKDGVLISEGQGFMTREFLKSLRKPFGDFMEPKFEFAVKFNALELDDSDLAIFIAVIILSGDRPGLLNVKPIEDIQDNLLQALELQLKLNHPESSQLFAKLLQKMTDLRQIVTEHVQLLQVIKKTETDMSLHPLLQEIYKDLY
Description: Binding affinity towards peroxisome proliferator activated receptor gamma

Test [6] deals with T5, Sodium-dependent serotonin transporter (Homo sapiens, UniProt P31645). Kind of test: Negative logarithm causing 50% receptor occupancy against serotonin transporter.
T5 sequence (P31645 whole entry): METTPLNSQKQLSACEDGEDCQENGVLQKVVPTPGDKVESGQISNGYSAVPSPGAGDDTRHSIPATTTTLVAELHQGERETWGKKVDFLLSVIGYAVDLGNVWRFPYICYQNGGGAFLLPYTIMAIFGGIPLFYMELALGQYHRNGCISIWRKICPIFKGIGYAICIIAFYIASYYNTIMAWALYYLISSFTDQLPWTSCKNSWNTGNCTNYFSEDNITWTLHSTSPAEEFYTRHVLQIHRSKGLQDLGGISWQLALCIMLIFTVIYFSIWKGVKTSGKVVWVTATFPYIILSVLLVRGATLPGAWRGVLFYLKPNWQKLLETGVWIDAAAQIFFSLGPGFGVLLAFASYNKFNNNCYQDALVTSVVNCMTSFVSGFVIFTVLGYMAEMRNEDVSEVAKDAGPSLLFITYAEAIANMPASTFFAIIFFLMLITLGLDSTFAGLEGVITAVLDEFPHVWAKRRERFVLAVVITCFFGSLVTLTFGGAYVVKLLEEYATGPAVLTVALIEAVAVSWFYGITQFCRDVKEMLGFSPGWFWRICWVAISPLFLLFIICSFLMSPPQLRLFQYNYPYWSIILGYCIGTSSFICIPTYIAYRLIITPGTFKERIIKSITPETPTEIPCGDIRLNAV
Test [7] deals with T5, Sodium-dependent serotonin transporter.
Description: Inhibition constant against serotonin transporter
Test [8] deals with T6, 5-hydroxytryptamine receptor 1A (Homo sapiens, UniProt P08908).
T6 sequence (P08908 whole entry): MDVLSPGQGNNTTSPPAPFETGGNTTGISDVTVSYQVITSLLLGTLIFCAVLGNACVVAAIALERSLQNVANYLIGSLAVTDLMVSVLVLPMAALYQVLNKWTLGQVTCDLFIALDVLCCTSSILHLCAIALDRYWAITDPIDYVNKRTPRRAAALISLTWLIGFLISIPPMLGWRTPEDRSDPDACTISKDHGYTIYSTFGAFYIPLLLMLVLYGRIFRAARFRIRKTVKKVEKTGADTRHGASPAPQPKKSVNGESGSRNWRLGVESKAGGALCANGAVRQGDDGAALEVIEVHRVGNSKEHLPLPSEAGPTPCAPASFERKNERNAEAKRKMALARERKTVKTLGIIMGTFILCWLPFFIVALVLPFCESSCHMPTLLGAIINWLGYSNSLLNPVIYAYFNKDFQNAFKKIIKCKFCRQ
Description: Inhibition constant against 5-hydroxytryptamine 1A receptor

Test [9] deals with T5, Sodium-dependent serotonin transporter. This is another data set of the same source.
Description: Inhibitory concentration against serotonin transporter
Test [10] has as its target T1, Polyunsaturated fatty acid 5-lipoxygenase.
The target in test [11] is T7, Substance-K receptor (Homo sapiens, UniProt P21452).
T7 sequence (P21452 whole entry): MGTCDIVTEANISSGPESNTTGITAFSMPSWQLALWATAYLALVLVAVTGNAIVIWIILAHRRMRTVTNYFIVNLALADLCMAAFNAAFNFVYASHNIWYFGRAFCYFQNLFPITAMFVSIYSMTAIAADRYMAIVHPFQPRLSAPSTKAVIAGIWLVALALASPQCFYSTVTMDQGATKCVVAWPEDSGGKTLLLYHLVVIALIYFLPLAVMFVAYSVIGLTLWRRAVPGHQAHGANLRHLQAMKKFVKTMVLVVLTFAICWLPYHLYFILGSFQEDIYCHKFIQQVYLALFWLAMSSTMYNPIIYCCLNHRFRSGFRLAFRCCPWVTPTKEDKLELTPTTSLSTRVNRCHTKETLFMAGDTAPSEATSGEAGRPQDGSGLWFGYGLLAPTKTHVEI
Description: Inhibitory concentration against tachykinin receptor 2

Test [12] addresses T8, Adrenergic receptor alpha-1 (Homo sapiens, UniProt P35348+P25100+P35368).
T8 sequence (P35348 whole entry): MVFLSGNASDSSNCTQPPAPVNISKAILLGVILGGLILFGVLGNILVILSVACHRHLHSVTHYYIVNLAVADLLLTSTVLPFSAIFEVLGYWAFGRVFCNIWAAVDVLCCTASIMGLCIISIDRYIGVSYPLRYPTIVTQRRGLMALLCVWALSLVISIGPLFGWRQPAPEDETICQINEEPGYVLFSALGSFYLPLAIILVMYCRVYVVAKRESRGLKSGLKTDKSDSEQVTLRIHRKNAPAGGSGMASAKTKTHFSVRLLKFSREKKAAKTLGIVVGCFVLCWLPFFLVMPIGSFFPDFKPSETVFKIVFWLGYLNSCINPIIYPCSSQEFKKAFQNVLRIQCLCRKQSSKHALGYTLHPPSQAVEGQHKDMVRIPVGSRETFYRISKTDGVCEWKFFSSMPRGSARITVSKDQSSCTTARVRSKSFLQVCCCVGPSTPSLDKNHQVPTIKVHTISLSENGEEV
T8 sequence (P25100 whole entry): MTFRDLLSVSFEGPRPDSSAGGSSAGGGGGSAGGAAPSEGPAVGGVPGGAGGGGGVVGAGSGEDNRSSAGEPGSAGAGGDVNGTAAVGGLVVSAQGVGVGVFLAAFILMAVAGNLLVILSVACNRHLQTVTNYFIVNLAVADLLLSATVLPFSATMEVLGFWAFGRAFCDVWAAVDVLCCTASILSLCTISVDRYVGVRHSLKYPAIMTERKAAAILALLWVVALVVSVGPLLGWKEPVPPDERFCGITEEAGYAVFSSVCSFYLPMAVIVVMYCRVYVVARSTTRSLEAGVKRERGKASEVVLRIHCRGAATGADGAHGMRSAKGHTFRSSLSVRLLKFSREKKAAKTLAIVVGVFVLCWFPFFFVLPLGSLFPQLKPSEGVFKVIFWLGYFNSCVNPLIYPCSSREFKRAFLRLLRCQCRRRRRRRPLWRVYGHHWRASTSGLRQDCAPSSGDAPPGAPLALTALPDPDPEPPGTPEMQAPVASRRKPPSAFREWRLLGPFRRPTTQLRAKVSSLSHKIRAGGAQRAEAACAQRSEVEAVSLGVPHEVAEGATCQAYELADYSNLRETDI
T8 sequence (P35368 whole entry): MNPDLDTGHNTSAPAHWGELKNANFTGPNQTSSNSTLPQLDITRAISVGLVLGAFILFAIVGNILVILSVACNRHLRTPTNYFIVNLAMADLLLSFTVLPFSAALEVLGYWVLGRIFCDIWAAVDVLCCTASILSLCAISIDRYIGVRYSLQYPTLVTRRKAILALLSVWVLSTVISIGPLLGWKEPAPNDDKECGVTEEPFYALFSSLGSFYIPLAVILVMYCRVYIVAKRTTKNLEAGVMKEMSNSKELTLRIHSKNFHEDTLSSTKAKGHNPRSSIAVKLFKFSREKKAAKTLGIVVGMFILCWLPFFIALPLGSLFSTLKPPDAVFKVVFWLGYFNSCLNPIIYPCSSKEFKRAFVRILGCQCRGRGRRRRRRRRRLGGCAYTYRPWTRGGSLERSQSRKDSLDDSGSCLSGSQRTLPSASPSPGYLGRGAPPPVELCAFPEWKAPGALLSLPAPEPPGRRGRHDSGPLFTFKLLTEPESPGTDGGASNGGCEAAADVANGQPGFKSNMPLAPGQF
Briefly: Inhibition constant against alpha adrenergic receptor. Format: protein assay.

As to `COc1ccc(-n2nc(C#CC(C)N(O)C(C)=O)cc2-c2ccc(Cl)cc2)cc1` (stereo not drawn), the IC50 (commonly the point on the concentration scale where inhibition reaches its midpoint) stood at 110 nM in [1] and 30 nM in test [2].

For the compound `CCO[C@@H](Cc1ccc(OCCn2c3ccccc3c3ccccc32)cc1)C(=O)O`, the Kd – broadly, the concentration at which binding is half-saturated – in test [3] was determined as 360 nM; in test [4] it was 3000 nM; in test [5], 170 nM.

Regarding `CC(C)(C)c1cc(C(=O)c2cccs2)cc(C(C)(C)C)c1O` [PRIFELONE], the IC50 in [1] came to 20000 nM; in test [2] it was 500 nM.

For `O=C1COc2ccc(OCCNCCCOc3cccc4[nH]ccc34)cc2N1`, the Ki (usually a dissociation constant, usually derived from enzyme kinetics or from competition with a known ligand) in test [6] is 79.4 nM.

On to `CN(C)CC(O)COc1cccc2[nH]ccc12` (stereo not drawn), for which the Ki in [7] was above 7000 nM; in [8] it was 24 nM.

`CCO[C@@H](Cc1ccc(OCC=C(c2ccccc2)c2ccccc2)cc1)C(=O)O`: the Kd worked out at 6400 nM in test [3], 5700 nM in [4] and 2700 nM in test [5].

Consider `CCO[C@@H](Cc1ccc(OCC=C(c2ccc(-c3ccccc3)cc2)c2ccc(-c3ccccc3)cc2)cc1)C(=O)O`, for which the dissociation constant Kd in test [3] came out at 1100 nM; in [4], 500 nM; in [5] it was 300 nM.

Turning to `COc1cccc2c1CCCC2CN(C)CCc1cccc(F)c1` (stereo not drawn), the IC50 in [9] came out at 160 nM. In test [8], this compound yielded a Ki of 3.2 nM.

With `Cc1c(O)c(C)c2sc(NCc3ccc(S(N)(=O)=O)cc3)nc2c1C`, the concentration for half-maximal inhibition (IC50) in test [10] came out at 230 nM.

For `COc1ccccc1CN[C@H]1C2CCN(CC2)[C@@H]1C(c1ccccc1)c1ccccc1`, in [11], the IC50 was above 10000 nM.

Consider `COc1cccc2c1CCCC2CN(C)CCc1ccc2c(c1)OCO2` (stereo not drawn), for which the IC50 in test [9] was determined as 21 nM. This compound registered a Ki in test [8] of 6.7 nM.

For the compound `CN1[C@@H]2CC[C@H]1C[C@@H](OC(=O)c1c[nH]c3ccccc13)C2` [TROPISETRON], the Ki in test [8] worked out at 5.3 nM.

For `C1=C(c2c[nH]c3ncccc23)CCN(CCOc2cccc3[nH]ccc23)C1`, the inhibition constant Ki came to 1.5 nM in test [7] and 1 nM in [12].

As to `CCOC(Cc1ccc(OCCN(C)C2=Nc3ccccc3Sc3ccccc32)cc1)C(=O)O` (stereo not drawn), the Kd in test [3] is 7500 nM; in test [5] it was 9800 nM.

As to `CCN(CC)C(=O)[C@@]1(c2ccccc2)CC1CNCC(O)COc1cccc2[nH]ccc12` (stereo partly drawn), the IC50 in test [9] was 120 nM. The compound also had a Ki in [8] of 45 nM.

Take `CN(C)C(=O)Oc1ccc2c(c1)C=CCN(C)[C@@H]2CCOc1ccc([N+](=O)[O-])cc1`: the midpoint of inhibition in test [9], the IC50, lay at 6 nM.

For the compound `CC(C)(C)c1cc(C=C2SC(N)=NC2=O)cc(C(C)(C)C)c1O`, the results for the half-inhibitory concentration (IC50) in [1] and in [2] were 770 nM and 390 nM, respectively.

Regarding `CC(COc1ccc2c(c1)NC(=O)CO2)NCC(O)COc1cccc2[nH]ccc12` (stereo not drawn), the inhibitory constant (Ki) in test [6] is 50.1 nM.

Source of the values: ChEMBL document CHEMBL1140446, “Designed multiple ligands. An emerging drug discovery paradigm” (J Med Chem, 2005).
